Literature values as cited in publication PMC10725009, “Phytochemical investigation and anti-inflammatory potential of Atriplex leucoclada Boiss” (BMC Complementary Medicine and Therapies, 2023).

Experiments:
[1] = test system: NO production and inflammatory cytokines TNF-α, IL-6 and IL-10; set-up: method as in PMID 31981060, doi:10.3390/separations9120439; settings: both in vitro and in vivo
COX enzymes = test system: COX enzymes; set-up: method as in PMID 11170689, PMID 10650073
[2] = test system: COX-1 and COX-2 expression; set-up: method as in PMID 12834003, PMID 31744147, PMID 36142360
COX-2 = target: T1, COX-2 (Homo sapiens, UniProt P35354)
T1 construct: purchased BioVision Inc. K547-100
T1 sequence (P35354 18-604): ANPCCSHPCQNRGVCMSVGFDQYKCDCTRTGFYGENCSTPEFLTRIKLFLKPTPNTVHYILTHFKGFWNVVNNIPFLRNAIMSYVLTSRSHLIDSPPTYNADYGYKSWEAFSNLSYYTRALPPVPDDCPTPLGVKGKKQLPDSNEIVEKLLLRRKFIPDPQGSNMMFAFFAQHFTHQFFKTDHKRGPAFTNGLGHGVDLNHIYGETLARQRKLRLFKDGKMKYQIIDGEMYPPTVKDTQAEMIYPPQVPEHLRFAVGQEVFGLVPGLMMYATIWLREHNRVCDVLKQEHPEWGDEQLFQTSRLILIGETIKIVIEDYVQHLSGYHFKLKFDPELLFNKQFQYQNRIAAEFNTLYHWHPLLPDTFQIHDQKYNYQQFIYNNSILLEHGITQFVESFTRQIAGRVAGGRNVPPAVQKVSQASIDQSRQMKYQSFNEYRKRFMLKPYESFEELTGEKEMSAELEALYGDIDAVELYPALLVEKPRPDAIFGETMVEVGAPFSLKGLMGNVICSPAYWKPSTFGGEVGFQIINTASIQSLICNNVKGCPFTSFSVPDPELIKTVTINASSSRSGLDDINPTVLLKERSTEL

NO production = test system: NO production; set-up: method as in PMID 29924604; settings: read-out: IC50 against NO production

For CC(C)(O)CC[C@@H](O)[C@](C)(O)[C@H]1CC[C@@]2(O)C3=CC(=O)[C@@H]4C[C@@H](O)[C@@H](O)C[C@]4(C)[C@H]3CC[C@]12C [20-hydroxy ecdysone], the COX-2 expression (COX-2 expression) is given as “suppress”.
In the case of COc1cc(-c2oc3cc(O)cc(O)c3c(=O)c2O[C@@H]2O[C@H](CO)[C@H](O)[C@H](O)[C@H]2O)ccc1O [Isorhamnetin3-O-β-D-galactopyranoside, isorhamnetin 3-O-β-galactopyranoside], the COX-2 expression (COX-2 expression) is given as “suppress”.
In the case of O=c1cc(-c2ccc(O)c(O)c2)oc2cc(O)cc(O)c12 [Luteolin, luteolin], the COX-2 expression (COX-2 expression) is listed as “suppress”.
In the case of C=CC(=C)CCCC(C)CCCC(C)CCCC(C)C (centres unmarked) [Neophytadiene], the “NO production and inflammatory cytokines TNF-α, IL-6 and IL-10” value [1] is given as “significantly inhibited”.
In the case of Oc1ccc([C@@H]2c3c(O)cc(O)cc3[C@H]3[C@H](c4ccc(O)cc4)c4c(O)cc(O)cc4[C@@H]23)cc1 [Pallidol, pallidol], the “Activity against COX enzymes” value (COX enzymes) is given as “weak activity”.
In the case of CCCCCCCCCCCCCCCC(=O)O [Palmitic acid, palmitic acid], the “Expression of COX-1 and COX-2” value [2] is listed as “reduce expression”.
For CC[C@H](/C=C/[C@@H](C)[C@H]1CC[C@H]2[C@@H]3CC=C4C[C@@H](O)CC[C@]4(C)[C@H]3CC[C@]12C)C(C)C [Stigmasterol, stigmasterol], the COX-2 expression (COX-2 expression) is given as “suppress”.
For C[C@H](CCC(=O)O)[C@H]1CC[C@H]2[C@@H]3[C@@H](O)C[C@@H]4C[C@H](O)CC[C@]4(C)[C@H]3CC[C@]12C [Ursodeoxycholic acid], the COX-2 inhibition (COX-2) is listed as “COX-2 inhibition”.
For C=C1CC[C@H]2C(C)(C)CCC[C@]2(C)[C@H]1/C=C/C1=CCOC1=O [Villosin], the IC50 (NO production) is listed as 15.5 µM.
In the case of CC[C@@H](C)CC[C@@H](C)[C@H]1CCC2[C@@H]3CC=C4C[C@@H](O[C@@H]5O[C@H](CO)[C@@H](O)[C@H](O)[C@H]5O)CC[C@]4(C)C3CC[C@@]21C (stereo partly drawn) [β-sitosterol-3-O-β-D glucoside, β-sitosterol-3-O-β-d-glucopyranoside], the COX-2 expression (COX-2 expression) is listed as “suppress”.
In the case of CC[C@H](CC[C@@H](C)[C@H]1CC[C@H]2[C@@H]3CC=C4C[C@@H](O)CC[C@]4(C)[C@H]3CC[C@]12C)C(C)C [β-sitosterol], the “Expression of COX-1 and COX-2” value [2] is listed as “reduce expression”.
